From patent US4791215A, “Derivatives of glutamic acid and aspartic acid” (priority 1984, dated 1988)
Where two headings read alike, the source gives them in different places.

What was measured:
[1] = system: CCK-8 induced contraction of rabbit colon; experiment: Anti-spastic activity in the colon stimulated by CCK-8; assay type: in vivo
Method: A much more specific anti-spastic activity, that is adhering much more to a physiological situation, is illustrated by the following experiment.
The abdomen of an anaesthetised rabbit was cut open to show the transverse colon. A small balloon full of water was inserted at the point established and connected to a pressure transducer by means of a polythene cannula filled with water.
The optimum sensitivity was fixed in relation to the physiological conditions and the products were administered through the femoral vein. Contractions were induced by the administration of 100 ng/kg of CCK.

[2] = Body weight on daily oral dosing; assay type: in vivo, rats
Method: (§1) In order to check the hypothesis that the anti-CCK activity shown by most of the compounds in question may be used to advantage in the treatment of anorexia in man or as an appetite stimulant for farm animals, the following experiment was carried out:
(§2) Male rats having a weight of about 160 g, divided into groups of 10 animals, were used. […]
(§3) The drug, in the form of the sodium salt, was dissolved in water and administered in a volume of 10 ml of H2 O/kg while the control group received an equal volume of the solvent alone.
(§4) The following tables give the average values of the food consumption and the average weight of each group of animals, calculated weekly as well as the Student's t value calculated from the various treated groups and the group of control animals.

[3] = Food consumption on daily oral dosing; assay type: in vivo, rats
Method: as §1, §2, §3, §4

normal pancreatic cells = experiment: Trophic action of CCK-8 on normal pancreas; assay type: in vivo, hamsters
Description: (§5) The anti-cholecystokinin effect of the most powerful of the compounds which are the subject of the present invention, that is the compound C-7, on the trophic activity of CCK on normal pancreatic cells and on those of a pancreatic adenocarcinoma is to be studied.
(§6) Male hamsters were inoculated in the cheek pouches with a suspension of 1×10^5 tumoral cells of a pancreatic adenocarcinoma. Five days after the inoculation the animals were divided at random into 4 groups of 10 animals each, that is, a control group, a group of animals treated with 10 μg/kg of CCK-8 three times a day, a group of animals treated with 5 mg/kg i.p. of compound C-7 three times a day, and a fourth group treated simultaneously with the compound C-7 and CCK-8 in the manner described above.
(§7) After 15 days of this treatment, the animals were killed, and the normal pancreas and the inoculated pancreatic tumours in the cheek pouches were collected and weighed. The DNA was extracted and measured according to conventional techniques.
(§8) The results thus obtained are given in Table 13, expressed as mean values (±S.E.)

[4] = system: pancreatic adenocarcinoma; assay type: in vivo, hamsters
Description: as §5, §6, §7, §8

[5] = 10 mcg/kg CCK-8 + compound 5 mg/kg, 3 times a day
[6] = compound 5 mg/kg i.p. 3 times per day

For `CCCCCN(CCCCC)C(=O)C(CCC(=O)O)NC(=O)c1ccc(Cl)c(Cl)c1` (centres unmarked) [Compound C-7], the “effect on CCK-8 stimulated colon” value ([1]; 3 mg/kg iv, single experiments) was -100.0, the ED50 ([1]; Oryctolagus cuniculus, iv, CCK 100 ng/kg) was 1.11 mg/kg and the body weight ([2]; 0.3 mg/kg os, time 0) was 162.1 ± 2.48 g. It also gave a body weight ([2]; 0.3 mg/kg os, week 1) of 201.3 ± 2.7 g, a body weight ([2]; 0.3 mg/kg os, week 2) of 254.5 ± 2.66 g and a body weight ([2]; 0.3 mg/kg os, week 3) of 315.2 ± 2.72 g. It also gave a body weight ([2]; 1 mg/kg os, time 0) of 166.0 ± 1.56 g, a body weight ([2]; 1 mg/kg os, week 1) of 214.7 ± 1.93 g and a body weight ([2]; 1 mg/kg os, week 2) of 267.5 ± 2.6 g. The body weight ([2]; 1 mg/kg os, week 3) was 319.8 ± 2.49 g, the body weight ([2]; 3 mg/kg os, time 0) was 166.6 ± 1.73 g and the body weight ([2]; 3 mg/kg os, week 1) was 227.9 ± 1.65 g. The body weight ([2]; 3 mg/kg os, week 2) was 290.9 ± 2.6 g, the body weight ([2]; 3 mg/kg os, week 3) was 349.5 ± 2.82 g and the “weight increase versus control animals” value ([2]; 0.3, 1 and 3 mg/kg os) was “significantly greater weight increase than the control animals”. The “increase in food consumption compared with controls” value ([3]; 0.3 mg/kg daily) was “about 15%”, the food consumption ([3]; 0.3 mg/kg os, week 1) was 176.4 ± 3.70 g/week and the food consumption ([3]; 0.3 mg/kg os, week 2) was 216.8 ± 4.71 g/week. The food consumption ([3]; 0.3 mg/kg os, week 3) was 239.3 ± 4.07 g/week, the food consumption ([3]; 1 mg/kg os, week 1) was 199.6 ± 3.88 g/week and the food consumption ([3]; 1 mg/kg os, week 2) was 230.5 ± 3.09 g/week. The food consumption ([3]; 1 mg/kg os, week 3) was 261.4 ± 4.24 g/week, the food consumption ([3]; 3 mg/kg os, week 1) was 198.4 ± 3.66 g/week and the food consumption ([3]; 3 mg/kg os, week 2) was 244.8 ± 3.09 g/week. For the same compound, the food consumption ([3]; 3 mg/kg os, week 3) was 268.8 ± 4.86 g/week, the “increase in food consumption compared with controls” value ([3]; other doses tested (1, 3 mg/kg daily)) was “about 30%” and the Pancreas weight (normal pancreatic cells; [5]) was 374 ± 25.4 mg. The “Pancreatic DNA” value (normal pancreatic cells; [5]) was 1.0 ± 0.08 mg, the Pancreas weight (normal pancreatic cells; [6]) was 336 ± 22.6 mg and the “Pancreatic DNA” value (normal pancreatic cells; [6]) was 0.93 ± 0.09 mg. The “TUMORAL DNA” value [4, 5] was 0.4 ± 0.02 mg, the “Weight of Pancreatic Carcinoma” value [4, 5] was 109.5 ± 6.2 mg and the “TUMORAL DNA” value [4, 6] was 0.42 ± 0.02 mg. The “Weight of Pancreatic Carcinoma” value [4, 6] was 104 ± 7.5 mg and the “effect on growth of pancreatic adenocarcinoma / CCK-8 actions” value ([4]; hamster, in vivo) was “antagonises both these actions of CCK-8 in a higly significant manner”.
